Measurements taken from PubChem BioAssay (NCI).
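Values below derive from 48-hour exposures of cells grown in 96-well plates, with endpoints linearly interpolated between the two concentrations bracketing the appropriate inhibition level. Here, GI50 denotes the concentration required for 50% inhibition of growth. TGI is the concentration that stops growth completely.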

Key:
Assay in all cases: DTP human tumour cell line panel, 48 h
[1] = test system: SR leukemia
[2] = test system: UACC-257 melanoma
[3] = test system: CCRF-CEM leukemia
[4] = test system: CAKI-1 renal
[5] = test system: DU-145 prostate
[6] = test system: SNB-75 CNS
[7] = test system: SK-MEL-5 melanoma
[8] = test system: T-47D breast
[9] = test system: EKVX NSCLC
[10] = test system: SW-620 colon
[11] = test system: OVCAR-5 ovarian
[12] = test system: BT-549 breast
[13] = test system: RPMI-8226 leukemia
[14] = test system: PC-3 prostate
[15] = test system: NCI-H226 lung
[16] = test system: ACHN renal
[17] = test system: OVCAR-4 ovarian
[18] = test system: SN12C renal
[19] = test system: HT29 colon
[20] = test system: SK-MEL-28 melanoma
[21] = test system: SF-295 CNS
[22] = test system: TK-10 renal
[23] = test system: KM12 colon
[24] = test system: UACC-62 melanoma
[25] = test system: MCF7 breast
[26] = test system: NCI-H522 lung
[27] = test system: HL-60(TB) leukemia
[28] = test system: COLO 205 colon
[29] = test system: SF-539 CNS
[30] = test system: HOP-92 NSCLC
[31] = test system: MALME-3M melanoma
[32] = test system: HCC-2998 colon
[33] = test system: A498 renal
[34] = test system: RXF 393 renal
[35] = test system: NCI-H460 lung
[36] = test system: IGROV1 ovarian
[37] = test system: HOP-62 NSCLC
[38] = test system: K-562 leukemia
[39] = test system: SNB-19 CNS
[40] = test system: NCI-H23 lung
[41] = test system: SF-268 CNS
[42] = test system: UO-31 renal
[43] = test system: SK-MEL-2 melanoma
[44] = test system: HS 578T breast
[45] = test system: HCT-15 colon
[46] = test system: MDA-MB-231 breast
[47] = test system: MDA-MB-435
[48] = test system: M14 melanoma

With `NCCCNc1nc2ccccc2c2c(=O)c3cccc(F)c3sc12` the GI50 [1] was 1.57 µM, the TGI [1] was over 100 µM and the GI50 [2] was 1.97 µM. It also gave a TGI [2] of 3.81 µM, a GI50 [3] of 1.42 µM and a TGI [3] of 4.16 µM. For the same compound, the GI50 [4] was 1.42 µM, the TGI [4] was 2.75 µM and the GI50 [5] was 1.23 µM. For the same compound, the TGI [5] was 2.53 µM, the GI50 [6] was 1.61 µM and the TGI [6] was 3.21 µM. For the same compound, the GI50 [7] was 1.69 µM, the TGI [7] was 3.08 µM and the GI50 [8] was 1.58 µM. The TGI [8] was 3.74 µM, the GI50 [9] was 1.5 µM and the TGI [9] was 3 µM. The GI50 [10] was 1.1 µM, the TGI [10] was 2.49 µM and the GI50 [11] was 1.6 µM. For the same compound, the TGI [11] was 3.01 µM, the GI50 [12] was 11.5 µM and the TGI [12] was 29.6 µM. The GI50 [13] was 2.03 µM, the TGI [13] was 4.75 µM and the GI50 [14] was 1.67 µM. For the same compound, the TGI [14] was 3.26 µM, the GI50 [15] was 1.45 µM and the TGI [15] was 3.06 µM. For the same compound, the GI50 [16] was 1.2 µM, the TGI [16] was 2.43 µM and the GI50 [17] was 1.76 µM. The TGI [17] was 3.58 µM, the GI50 [18] was 1.28 µM and the TGI [18] was 2.7 µM. It also gave a GI50 [19] of 1.25 µM, a TGI [19] of 2.69 µM and a GI50 [20] of 1.77 µM. The TGI [20] was 3.23 µM, the GI50 [21] was 1.74 µM and the TGI [21] was 3.19 µM. The GI50 [22] was 1.94 µM, the TGI [22] was 3.47 µM and the GI50 [23] was 1.61 µM. The TGI [23] was 3.04 µM, the GI50 [24] was 1.67 µM and the TGI [24] was 3.13 µM. For the same compound, the GI50 [25] was 1.01 µM, the TGI [25] was 2.4 µM and the GI50 [26] was 1.61 µM. It also gave a TGI [26] of 3.28 µM, a GI50 [27] of 1.88 µM and a TGI [27] of 3.95 µM. For the same compound, the GI50 [28] was 1.6 µM, the TGI [28] was 3.69 µM and the GI50 [29] was 1.59 µM. It also gave a TGI [29] of 2.97 µM, a GI50 [30] of 1.29 µM and a TGI [30] of 3.39 µM. The GI50 [31] was 1.57 µM, the TGI [31] was 3.05 µM and the GI50 [32] was 1.64 µM. For the same compound, the TGI [32] was 3.41 µM, the GI50 [33] was 1.67 µM and the TGI [33] was 3.1 µM. The GI50 [34] was 1.43 µM, the TGI [34] was 2.81 µM and the GI50 [35] was 0.493 µM. It also gave a TGI [35] of 1.77 µM, a GI50 [36] of 0.798 µM and a TGI [36] of 2.22 µM. For the same compound, the GI50 [37] was 1.5 µM, the TGI [37] was 3.15 µM and the GI50 [38] was 1.36 µM. The TGI [38] was 4.15 µM, the GI50 [39] was 1.57 µM and the TGI [39] was 3 µM. The GI50 [40] was 1.54 µM, the TGI [40] was 3.03 µM and the GI50 [41] was 1.47 µM. It also gave a TGI [41] of 3.35 µM, a GI50 [42] of 1.01 µM and a TGI [42] of 2.24 µM. The GI50 [43] was 1.77 µM, the TGI [43] was 3.66 µM and the GI50 [44] was 1.72 µM. The TGI [44] was 3.97 µM, the GI50 [45] was 1.13 µM and the TGI [45] was 2.39 µM. The GI50 [46] was 1.28 µM, the TGI [46] was 2.75 µM and the GI50 [47] was 1.77 µM. The TGI [47] was 3.39 µM, the GI50 [48] was 1.8 µM and the TGI [48] was 3.56 µM.
